Laboratory results published in publication PMC9424909, “Rutin alleviated acrolein-induced cytotoxicity in Caco-2 and GES-1 cells by forming a cyclic hemiacetal product” (Frontiers in Nutrition, 2022).
Where “and” joins values, the source holds several entries; their conditions need not be identical. Equal values may be shown once. Read-outs that look alike come from different tables or passages of the source.

Legend:
Caco-2 cells [1] = experiment: JC-1 staining, mitochondrial membrane potential (MMP); format: cell-based, human; conditions: 24 h
Protocol: (§1) The Caco-2 cell line and GES-1 cell line were obtained from iCell Bioscience (Shanghai, China). As described by Chai et al. ([40]) with a bit modification, the Caco-2 cells were cultured within a medium composed of DMEM supplemented with 1% (v/v) NEAA, 10% (v/v) FBS, and penicillin and streptomycin (100 U/mL). GES-1 cells were cultivated according to Xu et al. ([41]) with slight modifications as follows: DMEM medium including 1% (v/v) NEAA, 10% (v/v) FBS, and penicillin and streptomycin (100 U/mL). Cells were all maintained in a humidified incubator containing 5% CO2 and 95% air at 37°C.
(§2) After incubation with different concentrations of samples, the changes of MMP in Caco-2 and GES-1 cells were measured in accordance with Liu et al., with slight modifications ([43]). In brief, cells (1 × 10^4 cells/well) were exposed to different concentrations of ACR and RAC for 24 h, respectively. Then 500 μL of JC-1 staining solution was added into each well and the plate was further incubated at 37°C for 15 min. Cells were then rinsed twice with 1 mL of staining buffer and resuspended with 500 μL of staining buffer prior to MMP determination in the flow cytometry.

GES-1 cells [2] = experiment: as above; format: cell-based, human; conditions: 24 h
Protocol: as §1, §2

Caco-2 cells [3] = experiment: cell survival, CCK-8 assay; format: cell-based, human; conditions: Caco-2
Protocol: as §1
(§3) The effects of ACR and RAC on cell survival (both Caco-2 and GES-1 cells) were measured by the CCK-8 assay ([41]). Briefly, cells (1 × 10^4 cells/well) were seeded into a 96-well plate and cultivated overnight. […] After cells were rinsed twice with PBS and resuspended in 100 μL of DMEM supplemented with 10% FBS, 10 μL of CCK-8 solution was added into each well and the plate was maintained for 1 h in the incubator. The plate was read at 450 nm on a microplate reader (BioTek, Epoch 2, USA), and all experiments were performed thrice. Cell viability was expressed as a percentage of the control group as shown below:
(§4) Cell viability (%) = A sample/A control × 100%
(§5) Where A sample was the absorbance (Abs) of the cells incubated with different concentrations of sample solutions, and A control was the Abs of the cells incubated without sample solution.

[4] = cell survival, CCK-8 assay; format: cell-based, human; conditions: human; for viability at 24 h, 140 µM: incubation 24 h, read-out: cell viability (viable cell number); for IC50 at 48 h: read-out: IC50 (cytotoxicity)
Protocol: as §1, §3, §4, §5

GES-1 cells [5] = experiment: cell survival, CCK-8 assay; format: cell-based, human; conditions: GES-1
Protocol: as §1, §3, §4, §5

Caco-2 cells [6] = experiment: apoptosis assay, Annexin-V FITC/PI flow cytometry; format: cell-based, human; conditions: 24 h
Protocol: as §1
(§6) Cell apoptosis assay was conducted in refer to Abas et al. ([42]) with modifications. In short, cells at a density of 1 × 10^4 cells/well were seeded in 96-well plates and incubated overnight, followed by exposure to different concentrations of ACR and RAC for another 24 h. After that, cells were rinsed twice with PBS, resuspended in 200 μL of Annexin-binding buffer, and finally stained with Annexin-V FITC and PI (5 μL each) for 10 min at 37°C in darkness. After adding 400 μL of Annexin-binding buffer, the signal intensity was measured using a FACSCalibur (Becton Dickinson, CA, USA) flow cytometry within 1 h, and data was analyzed with FlowJo software (Ashland, OR, USA).

GES-1 cells [7] = experiment: apoptosis assay, Annexin-V FITC/PI flow cytometry; format: cell-based, human; conditions: GES-1, 60 μM
Protocol: as §1, §6

[8] = in vitro simulated oral, gastric and intestinal digestion of RAC (HPLC); format: in vitro ADME
Protocol: The simulated oral, gastric, and intestinal digestion experiments of RAC were carried out according to Mamone et al. ([39]) with minor adjustments. One milliliter of RAC (1 mg/mL) was mixed with 4 mL SSF and stirred at 170 rpm for 2 min in lightproof condition to mimic the oral phase digestion. Based on the oral stage, 10 mL of SGF was added and reacted for another 2 h under the same condition to imitate the gastric phase digestion. To investigate the intestinal phase digestion, 20 mL of SIF was further added, and the mixture was stirred for another 2 h after simulated gastric digestion. For each stage, the same volume of deionized water was used in place of the corresponding digestive fluid as the control. At the end of each stage, 0.8 mL of the mixture was withdrawn and diluted with MeOH to 1.0 mL for HPLC analysis.
The standard curve of RAC was prepared as follows: one milligram of RAC was dissolved with MeOH to a final concentration of 1 mg/mL. The above solution was further used to prepare a series of RAC concentrations at 0.02, 0.04, 0.08, 0.2, and 1.0 mg/mL, respectively. The HPLC conditions for the determination of the content of RAC in the digestion mixture and the preparation of the standard curve of RAC were the same as those for the analysis of RAC, except that the detection wavelength was at 358 nm.

[9] = incubating with equal concentrations of ACR for 12 h at 37°C ref 25; cited from earlier work
[10] = parameters: method as in PMID 19743801; conditions: simulated physiological conditions ref 21; cited from earlier work

In the case of `CC1OC(OCC2OC(Oc3c(-c4ccc(O)c(O)c4)oc4c5c(cc(O)c4c3=O)OC(O)CC5)C(O)C(O)C2O)C(O)C(O)C1O` (racemic) [RAC], the “ratio of red/green fluorescence intensity” value (Caco-2 cells [1]; Caco-2, 20 μM) is reported as 17.64 ± 0.69, the “ratio of red/green fluorescence intensity” value (Caco-2 cells [1]; Caco-2, 40 μM) is reported as 15.16 ± 0.59 and the “ratio of red/green fluorescence intensity” value (Caco-2 cells [1]; Caco-2, 60 μM) is reported as 9.47 and 9.47 ± 0.37. For the same compound, the “ratio of red/green fluorescence intensity” value (GES-1 cells [2]; GES-1, 20 μM) was 13.32 ± 0.43, the “ratio of red/green fluorescence intensity” value (GES-1 cells [2]; GES-1, 40 μM) was 10.59 ± 0.33 and the “ratio of red/green fluorescence intensity” value (GES-1 cells [2]; GES-1, 60 μM) was 6.72 and 6.72 ± 0.30. The “viability of RAC-treated cells, fold higher than ACR-treated cells” value (Caco-2 cells [3]) was 10 fold, the viability at 24 h, 140 µM ([4]; Caco-2 cells, Caco-2, 140 μM) was > 75% and the IC50 at 48 h ([4]; Caco-2 cells, Caco-2, CCK-8) was > 140 µM. For the same compound, the viability at 24 h, 140 µM ([4]; GES-1 cells, GES-1, 140 μM) was > 75%, the IC50 at 48 h ([4]; GES-1 cells, GES-1, CCK-8) was > 140 µM and the “viability of RAC-treated cells, fold higher than ACR-treated cells” value (GES-1 cells [5]) was 6.5 fold. The apoptotic cells (Caco-2 cells [6]; Caco-2, 20 μM) was 8.3%, the apoptotic cells (Caco-2 cells [6]; Caco-2, 60 μM) was 10.81% and the “apoptotic rate, fold below the 60 μM ACR-treated group” value (GES-1 cells [7]) was 5.4 fold. For the same compound, the apoptotic rate (GES-1 cells [7]; 24 h) was 12.59%, the “The amount of RAC” value ([8]; Initial) was 2.99 ± 0.01 mg and the “Decrease of RAC” value ([8]; SGF 30 min (gastric)) was 16.39%. The “The amount of RAC” value ([8]; SGF 30 min (gastric)) was 2.50 ± 0.06 mg and 2.50 ± 0.06 a mg, the “Decrease of RAC” value ([8]; SGF 60 min (gastric)) was 16.05% and the “The amount of RAC” value ([8]; SGF 60 min (gastric)) was 2.51 ± 0.04 a mg. The “The content of RAC” value ([8]; SGF 60 min (gastric)) was 0.167 ± 0.0028 mg/mL, the “Decrease of RAC” value ([8]; SGF 90 min (gastric)) was 21.07% and the “The amount of RAC” value ([8]; SGF 90 min (gastric)) was 2.36 ± 0.04 b mg. The “The content of RAC” value ([8]; SGF 90 min (gastric)) was 0.157 ± 0.0029 mg/mL, the “Decrease of RAC” value ([8]; SGF 120 min (gastric)) was 24.41% and the “The amount of RAC” value ([8]; SGF 120 min (gastric)) was 2.26 ± 0.03 b mg. The “Decrease of RAC” value ([8]; SIF 30 min (intestinal)) was 13.38%, the “The amount of RAC” value ([8]; SIF 30 min (intestinal)) was 2.59 ± 0.01 a mg and the “The content of RAC” value ([8]; SIF 30 min (intestinal)) was 0.074 ± 0.0002 mg/mL. The “Decrease of RAC” value ([8]; SIF 60 min (intestinal)) was 14.72%, the “The amount of RAC” value ([8]; SIF 60 min (intestinal)) was 2.55 ± 0.01 b mg and the “The content of RAC” value ([8]; SIF 60 min (intestinal)) was 0.073 ± 0.0002 mg/mL. The “Decrease of RAC” value ([8]; SIF 90 min (intestinal)) was 14.38%, the “The amount of RAC” value ([8]; SIF 90 min (intestinal)) was 2.56 ± 0.01 b mg and the “The content of RAC” value ([8]; SIF 90 min (intestinal)) was 0.073 ± 0.0002 mg/mL. The “Decrease of RAC” value ([8]; SIF 120 min (intestinal)) was 16.39%, the “The amount of RAC” value ([8]; SIF 120 min (intestinal)) was 2.50 ± 0.01 mg and 2.50 ± 0.01 c mg and the “The content of RAC” value ([8]; SIF 120 min (intestinal)) was 0.072 ± 0.0004 mg/mL. The “Decrease of RAC” value ([8]; SSF 2 min (oral)) was 0.33%, the “The amount of RAC” value ([8]; SSF 2 min (oral)) was 2.98 ± 0.01 mg and the “The content of RAC” value ([8]; SSF 2 min (oral)) was 0.595 ± 0.0018 mg/mL.
In the case of `COc1ccc([C@@H]2CC(=O)c3c(O)cc(O)cc3O2)cc1O` [hesperetin], the ACR eliminated [9] is listed as 94.87%.
For `O=C(CCc1ccc(O)cc1)c1c(O)cc(O)cc1O` [phloretin], the ACR quenched [10] is given as “more than 99%”.
